Measured values: US6376488B1, “Benzoxazine α-1 adrenergic compounds” (Abbott Laboratories, priority 2000, dated 2002)
Counter-ions that a name gives are not always drawn.

melting point [°C]	Compound
280 to 282	COc1cccc2c1N1CCN(CCCCn3c(=O)[nH]c4c(sc5cccnc54)c3=O)CC1CO2 (single isomer, unassigned; (+)) (as salt: hydrochloride) [Example 14, (+) 3-[4-(10-methoxy-1,2,4a,5-tetrahydropyrazino[2,1-c][1,4]benzoxazin-3(4H)-yl)butyl]pyido [2′,3′:4,5]thieno[3,2-d]pyrimidine-2,4(1H,3H)-dione trihydrochloride]
282 to 284	O=c1[nH]c2c(sc3cccnc32)c(=O)n1CCCCN1CCN2c3ccccc3OCC2C1 (single isomer, unassigned; (-)) (as salt: hydrochloride) [Example 4, (−) 3-[4-(1.2,4a,5-tetrahydropyrazino[2,1-c][1,4benzoxazin-3(4H)-yl)butyl]pyrido[2′,3′:4,5]thieno[3,2-d]pyrimidine-2,4(1H,3H)-dione dihydrochloride]
207 to 210	COc1cccc2c1N1CCN(CCCCn3c(=O)[nH]c4c(sc5ncccc54)c3=O)CC1CO2 (single isomer, unassigned; (-)) (as salt: hydrochloride) [Example 11, (−) 3-[4-(10-methoxy-1,2,4a,5-tetrahydropyrazino[2,1-c][1,4]benzoxazin-3(4H)-yl)butyl]pyrido[3′,2′:4.5]thieno[3,2-d]pyrimidine-2,4(1H,3H)-dione trihydrochloride]
